Key:
[1] = system: abdominal aortic aneurysm model (angiotensin II-infused apoE knockout mice); test: Aneurysm therapy and regression in apoE knockout mouse aneurysm model; type: in vivo; details: 8 weeks of injection; control group 0% ±13%; p<0.05
Method: After completion of 4 weeks of angiotensin II infusion, the lumen diameter of each abdominal aortic aneurysm was measured using ultrasonic diagnostic equipment. The mice were evenly divided into 2 groups based on the measured values. Immediately after grouping, daily subcutaneous injection of the […] inhibitor SP600125 (SP group) or a solution alone (control group) was initiated. The method employed herein for administration of SP600125 and the solution was similar to that in Example 1 above. On week 8 after the initiation of injection, the aneurysm diameter of each abdominal aortic aneurysm was measured again using ultrasonic diagnostic equipment.

[2] = system: abdominal aortic aneurysm model (angiotensin II-infused apoE knockout mice); test: JNK inhibition experiment using an apoE knockout mouse aneurysm model (angiotensin II infusion, prevention); type: in vivo; details: by week 5 after initiation of angiotensin II infusion; control group 6.25%
Method: An abdominal aortic aneurysm model was generated through continuous administration of angiotensin II to apolipoprotein E (apo E) knockout mice according to Daugherty et al's method (J. Clin. Invest. 105: 1605-1612 (2000)). Specifically, mini-osmotic pump (Alzet) was implanted into 24-week-old apoE knockout male mice and angiotensin II (1 μg/min/kg) was continuously infused. These model mice were affected with hyperlipidemia, hypertension, and marked aortic arteriosclerosis. As a result of 4 weeks of angiotensin II infusion, aneurysm formation was observed mainly in the suprarenal abdominal aorta of these mice. Some of these mice died due to aneurysmal rupture. […] Simultaneously with the initiation of continuous infusion of angiotensin II, daily subcutaneous injection of a JNK inhibitor SP600125 (SP group: 8 mice) or a solution (control group: 16 mice) without JNK inhibitor was initiated. The method employed herein for administration of SP600125 was similar to that in Example 1 above. On week 4, the maximum diameter of each abdominal aorta was measured using ultrasonic diagnostic equipment.

[3] = system: vascular smooth muscle cells isolated from a rat aorta; test: Collagen synthesis (3H-labeled proline, collagenase-sensitive fraction) in vascular smooth muscle cell primary culture; type: cell-based; set-up: dose or concentration left out as unconfirmed; details: 72 hours; serum-free media; p<0.01
Method: An experiment was conducted using a vascular smooth muscle cell primary culture system isolated from a rat aorta. Among newly-synthesized proteins into which 3H-labeled proline had been incorporated, fractions that are specifically degraded by collagen degrading enzymes were subjected to quantitative analysis according to Kidwell et al's method (Methods in Enzymology, 147: 407-414 (1987)). 3H-labeled proline (3 μCi/ml) was added to serum-free media to initiate culture. Immediately after culture initiation, a JNK inhibitor peptide (D-JNK1, 0, 1, 2, and 5 mM, ALEXIS) was administered. At 72 hours after peptide administration, proteins in the culture supernatants were collected. Furthermore, only fractions that had been solubilized by collagen degrading enzymes were collected. 3H-labeled proline that had been incorporated for novel collagen synthesis was measured using a scintillation counter.

[4] = system: lysyl oxidase; test: Lysyl oxidase mRNA expression in serum-deficient vascular smooth muscle cells, real time PCR; type: cell-based, rat; set-up: dose or concentration left out as unconfirmed; details: serum-deficiency stress; day 6; p<0.01
Method: An experiment was conducted using a vascular smooth muscle cell primary culture system isolated from a rat aorta. Serum deficiency state was created at the initiation of the experiment. JNK of cultured cells was activated by serum-deficiency stress. Immediately after the initiation of the experiment, a JNK inhibitor peptide (D-JNKI1, 5 mM, ALEXIS) was administered. D-TAT (5 mM, ALEXIS) was used as a control peptide. On day 6 after peptide administration, the cells were harvested. Lysyl oxidase expression was subjected to quantitative analysis at the mRNA level using the real time PCR method. Lysyl oxidase (LOX) is an enzyme essential for the maturation of collagen fiber or elastin fiber. Decreased level of LOX indicates lowered ability to synthesize collagen or elastin.

[5] = system: MMP-9; test: MMP-9 secretion in TNF-α-stimulated THP-1 cells, gelatin zymography; type: cell-based, human; details: 0, 1, 2, and 5 μM peptide, TNF-α 50 ng/ml, 48 hours
Method: To verify the effects of a JNK inhibitor peptide, an experiment was conducted using MMP-9 as an index, which is thought to be important in the pathogenesis of aneurysms, in a cultured cell system. Cells used herein were macrophage cells (THP-1) mainly expressing MMP-9 in human aneurysms. Specifically, a JNK inhibitor peptide D-JNKI1 (ALEXIS) was administered at various concentrations (0, 1, 2, and 5 μM D-JNKI1) in advance to cultured THP-1 cells. D-TAT (ALEXIS) was used as a control peptide. At 24 hours after peptide administration. the cells were stimulated with TNF-α (50 ng/ml), an inflammatory cytokine. 48 hours later, culture solutions were collected and then the amounts of MMP-9 secreted in the culture solutions were subjected to quantitative analysis by the gelatin zymography method.

[6] = system: human abdominal aortic aneurysmal wall tissue; test: 3H-labeled proline incorporation in human aneurysmal wall culture system; type: cell-based; details: 5 mM peptide; TNF-α 100 ng/ml; 48 hours; p<0.05
Method: Aneurysmal wall tissue excised at the time of operation of human abdominal aortic aneurysms was chopped and then cultured. The ability of aneurysmal wall to newly synthesize collagen was analyzed using 3H-labeled proline that is abundantly contained in collagen according to the Kidwell et al's method (Methods in Enzymology 147: 407-414 (1987)). Specifically, 3H-labeled proline (3 μCi/ml) was added to media to initiate culture. Immediately after culture initiation, a JNK inhibitor peptide (D-JNKI1, 5 mM, ALEXIS) was administered. D-TAT (5 mM, ALEXIS) was used as a control peptide. At 12 hours after peptide administration, stimulation was performed with TNF-α (R&D Systems, 100 ng/ml) TNF-α is an inflammatory cytokine that is increased in human aortic aneurysms and is known to activate JNK. 48 hours later, proteins in the culture supernatants were collected. 3H-labeled proline that had been incorporated for novel synthesis was measured using a scintillation counter.

Compound	Reduction percentage of aneurysm diameter (before vs after injection) [1]	Cumulative survival rate [2] [%]	Ability to synthesize collagen [3] [times]	Lysyl oxidase expression level (mRNA) [4]	MMP-9 secretion due to TNF-α [5]	3H-labeled proline incorporation decreased by TNF-α [6]
Oc1c2ccccc2c2c3c(cccc13)N=N2 [SP600125, Anthra[1-9-cd]pyrazol-6(2H)-one]	17% ±10%	87.5				
c-Jun N-terminal Kinase Peptide Inhibitor 1, D-stereoisomer [D-JNKI1]			1.6±0.1	inhibited a decrease in lysyl oxidase expression level	suppressed MMP-9 secretion due to TNF-α in a concentration-dependent manner	significantly restored

Reference: US20070248944A1, “Preventive and Remedy for Collagen or Elastin Metabolic Disorder” (YAMAGUCHI UNIVERSITY, priority 2004, published 2007)
